Assays:
[1] = in vivo; cited from earlier work
[2] = tested on: β-carotene oxidation catalyzed by metmyoglobin; test: β-carotene co-oxidation in simulated gastric fluid; assay type: biochemical
Procedure: Here B carotene co-oxidation was determined in order to identify free radical damage during lipid peroxidation in the same model system of acid gastric fluid (FIG. 2).
However, the addition of catechin to the same system containing metmyoglobin inhibited β-carotene oxidation by 100% (FIG. 2).

[3] = tested on: peroxides / lipid peroxidation catalyzed by metmyoglobin; test: Simulated gastric system comprising polyphenol and metmyoglobin catalyst, with antacid; assay type: biochemical; conditions: low acidic conditions obtained by addition of antacid, metmyoglobin catalyst
Excerpt: An unexpected phenomenon established by the inventors of the present invention is that that in the stomach, generation or breakdown of peroxides by endogenous catalysts or catalysts obtained from food products, or components thereof, and food supplements can be selected by polyphenols and antacids. In other words, the appropriate combination of polyphenol and antacids can invert the catalyzed reaction from pro-oxidation to antioxidation consequently attenuating lipid peroxidation in the stomach.
The terms “a gastric-simulating system” or “simulated gastric system” are interchangeably used herein to describe an experimental setup comprising components which simulate, in-vitro, the environment of the GI tracts or components thereto. In a particular example, a gastric simulating system may comprise the following components: HCl 0.1N and pepsin (Kanner et al. ibid).
Hydroperoxides measurement in linoleic acid emulsions: Catechin was dissolved in 10% ethanol in water and the reaction tubes were incubated in triplicate in a shaking bath at 37° C. for 180 min. Samples of 25 or 50 μl were taken from the reaction tubes during the incubation and added to 475 or 950 μl, respectively, of FOX2 reagent. Before each experiment, old stock solution of linoleic acid was mixed with fresh solution in order to maintain an accurately consistent initial level of hydroperoxides.

Compound | raises pH of the stomach to [1] | inhibition of β-carotene oxidation ([2]; acid gastric fluid model system containing metmyoglobin) | β-carotene co-oxidation ([2]; low acidic conditions obtained by addition of antacid, metmyoglobin catalyst) | lipid peroxidation [3] | peroxide generation [3]
O=C([O-])[O-].[Ca+2] [Calcium carbonate] | ≤ 7.0 pH |  |  |  | 
[Mg+2].[OH-].[OH-] [Magnesium hydroxide] | 9 pH |  |  |  | 
catechin |  | 100% | completely prevented | completely prevented | zero
